# Tests used:
# [1] = tested on: rabbit model of stereotactic lung radiosurgery; assay: SB-CSI with hp Xe-129 in a rabbit model of stereotactic lung radiosurgery with and without a radioprotector; assay type: in vivo, New Zealand rabbits; details: for mean difference between the lungs (SB-CSI maps, mean±SD): right lower lobe 3 x 11 Gy, 50 mg/Kg I.V. 20 minutes before each radiation dose, baseline 3.2%±3.5%
# Excerpt: In order to study the efficacy of this technique for detecting changes in lung physiology and morphology, it was applied to a rabbit model of stereotactic lung radiosurgery with and without a radioprotector. The lower lobes of the right lung of nine New Zealand rabbits were irradiated with 3 doses of 11 Gy each (FIGS. 2A, 2B) using a TomoTherapy Hi-Art scanner. The healthy left lung was spared from radiation, so it could be used as a control and also would improve the animal's quality of life. Six of these nine animals received 50 mg/Kg of the radioprotector Amifostine, through an I.V., 20 minutes before each radiation dose. SB-CSI was performed using a 1.5-Tesla clinical MR scanner at baseline, and at 4 and 8 weeks post-radiation treatment. For correlation with the SB-CSI results, each animal was also scanned at the same time points (in the same MR scanner) using a 3D contrast-enhanced MRA sequence (ce-MRA), with 3 cc of a gadolinium chelate (FIGS. 2E, 2F). Within a week of the Xe-129 scan, a hyperpolarized Helium-3 (hp He-3) ventilation scan (FIGS. 2G, 2H) was obtained using the same inhalation and breath-hold technique as those for Xe-129, and a computed tomography (CT) scan was also obtained with a resolution of 0.5×0.5×1.5 mm^3 (FIGS. 2C, 2D).
# SB-CSI maps based on the integrals of each individual peak were calculated separately for each animal and for each time point. At baseline the mean differences between the lungs were statistically identical for both groups, with 1.3%±1.0% (mean±SD) for the control group (radiosurgery only) and 3.2%±3.5% for the group that received radiosurgery and the radioprotector. At 4 weeks post radiosurgery, the mean differences between the lungs were 6.2%±2.3% and 4.6%±3.2% for the control and radioprotector groups, respectively. At 8 weeks post, the mean difference between the lungs increased to 16.7%±3.2% for the control group, while for the animals that received the radioprotector the value remained identical to baseline, at 3.4%±2.6%. […]
# [2] = tested on: rabbit model of lung fibrosis; assay: hyperpolarized Xe-129 2D/3D-CSI in a rabbit model of lung fibrosis (endotracheal bleomycin); assay type: in vivo, New Zealand White rabbits; details: after endotracheal instillation, scans at 2, 4 and 7 weeks
# Excerpt: Three New Zealand White rabbits underwent hyperpolarized Xe-129 2D or 3D-CSI one four different days: one before and 2, 4 and 7 weeks after the endotracheal instillation of bleomycin which induces lung fibrosis, or after the endotracheal instillation of porcine elastase which initially induces lung inflammation but later induces emphysema, and one control animal with no intervention. All scans were done in a 1.5 Tesla clinical system (Avanto, Siemens Medical Solutions) using a transmitter/receiver birdcage RF coil (IGC Medical Advances, Milwaukee, Wis.) tuned to the Xe-129 frequency. Isotopically enriched (˜87%) Xe-129 was polarized to ˜35% using a commercial prototype polarizer (Xemed LLC, NH). For each 2D or 3D acquisition, a single 40-cc volume was administered to the animal, and respiration was suspended for the acquisition (˜6-18s). […]
# Quantification of the maps for the animal in the fibrosis model group show an increase in the tissue/gas and RBC/gas ratios following the instillation of bleomycin, but only the tissue/gas remained elevated, as expected in fibrosis (FIG. 5).
# This Xe-129 dissolved-phase peak is not well resolved in normal rabbits and it was not seen in our control animal. […] Subsequently, each separate peak in the spectrum was quantified using a Principal Component Analysis (PCA) method (33)
compound,measurement,setting,value
"NCCCNCCSP(=O)(O)O [radioprotector, Amifostine]",early treatment toxicity (radiation-induced pulmonary injury) detected by SB-CSI,"[1]; 4 and 8 weeks post treatment, versus radiation only",reduced early treatment toxicity
same,"mean difference between the lungs (SB-CSI maps, mean±SD)","[1]; 4 weeks post radiosurgery, control group 6.2%±2.3%",4.6%±3.2%
same,"mean difference between the lungs (SB-CSI maps, mean±SD)","[1]; 8 weeks post radiosurgery, control group 16.7%±3.2%",3.4%±2.6%
bleomycin,RBC/gas ratio (Xe-129 CSI maps),[2]; did not remain elevated (FIG. 5),increase
same,tissue/gas ratio (Xe-129 CSI maps),[2]; remained elevated (FIG. 5),increase
